Source: EPA's ToxValDB 9.5

System: Rattus norvegicus
[1] = subchronic, oral, gavage, M, Sprague-Dawley, Clinical Observation: Salivation PtosisReddish urine + Functional Observational Battery: Salivation Coordination of movement, abnormal …
[2] = short-term; duration: 28 days; oral; gavage; M; Sprague-Dawley; Deaths/5) + Body Weight Changes: decrease + Food Consumption: decrease + Urinalysis: Urine volume decrease, Uosm increase + Hematology: MCH …
[3] = short-term, duration: 28 days, oral, gavage, F, Sprague-Dawley, Clinical Observation: Salivation80 + Necropsy: Stomach-Thickening, limiting ridge Forestomach-Thickening, mucosa, focal + Histopathology: …
[4] = short-term, duration: 28 days, oral, gavage, M, Sprague-Dawley, Clinical Observation: Salivation80 + Necropsy: Stomach-Thickening, limiting ridge Forestomach-Thickening, mucosa, focal + Histopathology: …

`CC(O)CC(C)(C)O` (stereo not drawn) [2-Methyl-2,4-pentanediol] gave an NOAEL (subchronic, duration: 90 days, oral, gavage, M/F, CD(SD), Deaths: None (there were dead animals by miss-dosing) + Water Consumption: increase + Urinalysis: pH decrease, S.G. increase + Hematology: …) of 450 mg/kg-day.

`C=CC(C)(C)O` [2-Methyl-3-buten-2-ol] was tested, and the NOAEL (short-term, duration: 28 days, oral, gavage, M/F, Wistar, Deaths + 'excluded + Clinical Observation: Sedation Ataxia Uncoordinated gait Salivation + Blood Chemistry: ALT increase, AST increase + …) was 50 mg/kg-day.

`COCCOCCOCCO` [2-[2-(2-Methoxyethoxy)ethoxy]ethanol] showed an NOAEL (chronic, duration: 91 days, oral, drinking water, M/F, Sprague-Dawley, Deaths + Body Weight Changes: Body weight gain decrease + Food Consumption: decrease + Water Consumption: decrease + Absolute Organ Weight: …) of 400 mg/kg-day.

`Cc1ccc(Cl)c(Cl)c1` [3,4-Dichlorotoluene] was tested, and the NOEL (subchronic, oral, gavage, M, Sprague-Dawley, Deaths + Clinical Observation: Death-1/6 on treatment day 15R + Body Weight Changes: decrease(tendency)Body weight gain decrease(tendency…) was 100 mg/kg-day.

With `Nc1cc(C(=O)O)ccc1Cl` [3-Amino-4-chlorobenzoic acid] the NOEL (subchronic, oral, gavage, M, Sprague-Dawley, Clinical Observation: Transient salivation + Histopathology: Mesentric lymph node-Granuloma R) was 200 mg/kg-day.

`CCO[Si](CCCN)(OCC)OCC` [3-Aminopropyltriethoxysilane] was tested, and the NOAEL (chronic, duration: 91 days, oral, gavage, M/F, CD(SD), Deaths + Clinical Observation: Rales Wet and/or dried material (red, yellow, brown and/or clear) on various body surfaces Abnormal excreta…) was 200 mg/kg-day.

In the case of `C=C(C)CCl` [3-Chloro-2-methylpropene], the NOEL (subchronic, duration: 13 weeks, oral, gavage, M/F, Fischer 344, Deaths + Clinical Observation: Rough coat>400 + Body Weight Changes: decrease + Histopathology: Liver-Inflammation, Chronic, Focal Liver-…) is reported as 100 mg/kg-day.

`O=C1OC(O)C(C(Cl)Cl)=C1Cl` (stereo not drawn) [3-Chloro-4-(dichloromethyl)-5-hydroxy-2(5H)-furanone] showed an NOAEL (chronic, duration: 18 weeks, oral, gavage, M/F, Wistar, Deaths + Clinical Observation: Emaciation Wheezy breathing Tangled fur Hypersalivation Dirty mouth surrounding Colored nostril discharges + …) of less than 30 mg/kg-day.

Compound `CC(C)=CCO` [3-Methyl-2-buten-1-ol] has an NOAEL (subchronic, duration: 90 days, oral, drinking water, M/F, Wistar, Body Weight Changes: Mean body weight decrease, Weight gain decrease + Food Consumption: decrease + Water Consumption: decrease + Urinalysis…) of 152 mg/kg-day.

Compound `O=C(O)c1cccc([N+](=O)[O-])c1` [3-Nitrobenzoic acid] has an NOEL (subchronic, oral, gavage, M, Sprague-Dawley, Body Weight Changes: decrease + Hematology: RBC decrease + Blood Chemistry: TP decrease, A/G increase, Pi increase, K increase, Cl decrease…) of 20 mg/kg-day.

`COc1cc(NC(=O)CC(C)=O)c(OC)cc1Cl` [4'-Chloro-2',5'-dimethoxyacetoacetanilide] gave an NOAEL [1] of 40 mg/kg-day and an NOEL [1] of 8 mg/kg-day.

In the case of `O=S(=O)(c1ccc(Cl)cc1)c1ccc(Cl)cc1` [4,4'-Dichlorodiphenyl sulfone], the NOEL (chronic, duration: 14 weeks, oral, diet, M/F, Fischer 344, Body Weight Changes: decrease + Food Consumption: decrease + Hematology: Hgb decrease, Plt increase + Blood Chemistry: TP increase, BUN …) is reported as less than 2.34 mg/kg-day, the NOAEL [2] is reported as less than 50 mg/kg-day and the NOEL [2] is reported as less than 50 mg/kg-day.

`CCc1ncnc(Cl)c1Cl` [4,5-DICHLORO-6-ETHYLPYRIMIDINE] showed an NOEL (short-term, duration: 28 days, oral, gavage, M/F, Deaths + Clinical Observation: Salivation Locomotor activity decrease, Ptosis + Body Weight Changes: Weight gain decrease + Food Consumption…) of 5 mg/kg-day.

With `O=[N+]([O-])c1cc([As](=O)(O)O)ccc1O` [4-Hydroxy-3-nitrophenylarsonic acid] the NOEL (subchronic, duration: 13 weeks, oral, diet, M/F, Fischer 344, Deaths + Clinical Observation: Ruffled fur Hyperexcitability Ataxia Trembling Slight inactivity + Body Weight Changes: decrease + Relative …) was less than 4.8 mg/kg-day.

Work on `C=Cc1ccncc1` [4-Vinylpyridine] yielded an LOEL [3] of 80 mg/kg-day, an NOEL [3] of 40 mg/kg-day and an LOEL [4] of 40 mg/kg-day. It also gave an NOEL [4] of 20 mg/kg-day.

`Nc1ccc2cc(S(=O)(=O)O)ccc2c1` [6-Aminonaphthalene-2-sulfonic acid] gave an NOEL (short-term, duration: 28 days, oral, gavage, M/F, Urinalysis: pH decrease + Blood Chemistry: GOT increase) of 300 mg/kg-day.

In the case of `O=C/C=C/c1ccccc1` [(2E)-3-Phenylprop-2-enal], the NOEL (chronic, duration: 14 weeks, oral, diet, F, Fischer 344, Body Weight Changes: decrease + Food Consumption: decrease + Hematology: Ret decrease, Plt decrease + Blood Chemistry: Bile acid increase, …) is reported as less than 300 mg/kg-day and the NOEL (chronic, duration: 14 weeks, oral, diet, M/F, Fischer 344, Body Weight Changes: decrease + Food Consumption: decrease + Hematology: Ret decrease, Plt decrease + Blood Chemistry: Bile acid increase, …) is reported as less than 320 mg/kg-day.

`C/C=C/C=C/C=O` [(2E,4E)-2,4-Hexadienal] was tested, and the NOEL (chronic, duration: 14 weeks, oral, gavage, M/F, Fischer 344, Clinical Observation: Hypersalivation + Body Weight Changes: decrease + Histopathology: Stomach/forestomach-Epithelium hyperplasia Stomach/…) was 15 mg/kg-day.

Work on `CC/C=C\CCOC(=O)c1ccccc1O` [(3Z)-Hex-3-en-1-yl salicylate] yielded an NOAEL (subchronic, duration: 42 days, oral, gavage, M, Sprague-Dawley, Water Consumption: increase + Urinalysis: Volume increase, Osmo decrease + Hematology: RBC decrease, MCV increase, MCHC increase, RET …) of 120 mg/kg-day.

In the case of `CC(C)c1ccc2oc3nc(N)c(C(=O)O)cc3c(=O)c2c1` [Amlenanox], the NOEL (subchronic, duration: 35 days, oral, gavage, M/F, Wistar, Blood Chemistry: ALP increase + Absolute Organ Weight: Cecum increase, Stomach increase + Relative Organ Weight: Carcass increase, Cecum …) is reported as 200 mg/kg-day.

`COc1ccc(OC)c(N)c1` [Benzenamine, 2,5-dimethoxy-] showed an NOEL (short-term, duration: 28 days, oral, gavage, M/F, Clinical Observation: Salivation + Body Weight Changes: Weight gain decrease + Food Consumption: decrease + Hematology: HGB decrease, RET …) of 1 mg/kg-day.
